Source: patent US11426385B2, “Methods of improving cancer chemotherapy” (THE REGENTS OF THE UNIVERSITY OF CALIFORNIA, priority 2017, dated 2022)
Several values for one entry are separate records, joined by “and”; a condition that tells them apart may be missing. Equal entries are not always repeated.

Legend:
COX-1 = COX-1 inhibitory activity (Table 3); format: biochemical; parameters: dose or concentration left out as unconfirmed
[1] = system: bladder cancer PDX BL0269; assay: tumor growth in NSG-PDX bladder cancer mouse model BL0269; format: in vivo, NSG mice
Experimental: (§1) Materials and Supplies. Bladder cancer subject-derived xenograft (PDX) models were provided by The Jackson Laboratory (JAX, Bar Harbor, Me.). […] All experiments utilized PDX models within the first five passages. […] Gemcitabine was purchased from LC Laboratories (Woburn, Mass.). […] The cell lines have not been tested and authenticated by the authors.
(§2) PDX bladder cancer. NSG PDX studies were performed at the University of California Davis with IACUC approval. […] Gemcitabine was dissolved in 0.9% saline and administered at a dose of 150 mg/kg (IP, weekly) for 4 weeks. Animal weight and tumor size were measured twice per week. […] The percentage of tumor growth inhibition (TGI) was calculated as follows; 100%×(1−[(V^treated(final day)−V^treated(initial day))/(V^control(final day)−V^control(initial day))]), where V is tumor volume.
(§3) Statistics. Data are presented as mean±standard error of the mean (SEM) or mean±standard deviation (SD). Group comparisons were carried out using one-way analysis of variance or Student's t test. Survival analysis was performed using the Kaplan-Meier method. A p value of less than 0.05 was considered statistically significant.

COX-1 and COX-2 = conditions: cited from earlier work
p-ERK and p-AKT = assay: Western blot of PDX BL0293 tumor tissue; format: in vivo, NSG mice; conditions: day 3; BL0293 tumors
Experimental: Blood samples from mice were collected and analyzed for complete blood count (CBC), blood urea nitrogen (BUN), aspartate aminotransferase (AST), creatinine and total bilirubin at the Veterinary Medicine Comparative Pathology Laboratory of University of California Davis. The tumor, heart, liver, spleen, lung and kidney were harvested and the tissue samples were fixed in formalin or frozen at −80° C. Tumor sections were stained with hematoxylin and eosin (H&E) or were used for immunohistochemistry analysis. A board-certified pathologist provided detailed interpretation of tumor histomorphology and scoring of immunohistochemical staining. Some of the tumor sections were lysed and chromatographed using SDS-PAGE followed by transfer onto a PVDF membrane. […] The membranes were then probed with horseradish peroxidase (HRP) tagged secondary antibodies and epitopes were detected using the ECL Plus Western Blotting Detection Reagent (GE Healthcare, Piscataway, N.J.). Cell proliferation and apoptosis assessed with Ki-67 and cleaved caspase-3 antibodies (Cell Signaling, Danvers, Mass.) using an immunohistochemistry kit per the manufacturer's instructions (BioGenex, Fremont, Calif.).

[2] = system: 5637 bladder cancer cells; assay: 72 hr cell viability assay (MTS) and combination index, 5637; format: cell-based, human; conditions: single drug, 72 hr
Experimental: Median effect analysis to determine in vitro drug-drug interaction. […] PTUPB was dissolved in dimethyl sulfoxide (DMSO) to a final stock concentration of 10 mM. […] Cells were seeded at 2,000-3,000 cells and 100 μl of medium per well into 96-well plates (Becton Dickinson, Franklin Lakes, N.J.), and incubated overnight. Different concentrations of these two drugs were diluted in culture media and added to each well. The plates were then incubated for an additional 72 hours. The control group was dosed with 0.2% DMSO. Cell viability assays (MTS) were performed according to the manufacturer's protocol (Promega, Madison, Wis.). […] Dose-response curves were generated with GraphPad Prism 5 software (GraphPad Software Inc., La Jolla, Calif.). The combination indices (CI) were determined based on the method of Chou et al (26). CI values were calculated with CompuSyn software (http://www.combosyn.com/).

[3] = system: bladder cancer PDX BL0293; assay: tumor growth and survival in NSG-PDX bladder cancer mouse model BL0293; format: in vivo, NSG mice
Experimental: as §1, §2, §3

[4] = system: carboplatin-DNA adducts in 5637 bladder cancer cell line; assay: carboplatin-DNA adduct formation in vitro (accelerator mass spectrometry)
Experimental: (§4) Accelerator mass spectrometry to determine platinum-DNA adduct formation.
Cells were harvested at the 4 hr time point in one group of dishes and another group was washed and further incubated for 20 hr with fresh drug-free medium before cell harvest in order to determine DNA repair. Cell pellets were stored at −80° C. until DNA extraction.

[5] = system: carboplatin-DNA adducts in BL0293 tumors; assay: carboplatin-DNA adduct formation in vivo (accelerator mass spectrometry); conditions: carboplatin alone; 24 hours after carboplatin
Source text: as §4
DNA was extracted using a Promega Wizard genomic DNA purification kit according to manufacturer's instructions. Ten micrograms of DNA per sample was submitted to Lawrence Livermore National Laboratory (LLNL) for AMS analysis using previously reported protocol (25).

Row | Compound | COX-1 (% inhibition) (COX-1) [%] | further results
1 | CS(=O)(=O)c1ccc(-n2nc(CNC(=O)NC34CC5CC(CC(C5)C3)C4)cc2-c2ccccc2)cc1 [compound 1860, 1-Adamantan-1-yl-3-[1-(4-methanesulfonyl-phenyl)-5-phenyl-1H-pyrazol-3-ylmethyl]-urea] | 12.7 | –
2 | CS(=O)(=O)c1ccc(-n2nc(CNC(=O)Nc3ccc(OC(F)(F)F)cc3)cc2-c2ccccc2)cc1 [compound 2323, 1-[1-(4-Methanesulfonyl-phenyl)-5-phenyl-1H-pyrazol-3-ylmethyl]-3-(4-trifluoromethoxy-phenyl)-urea] | 10.4 | –
3 | NS(=O)(=O)c1ccc(-n2nc(CNC(=O)Nc3cccc(C(F)(F)F)c3)cc2-c2ccccc2)cc1 [compound 2107, 4-{5-Phenyl-3-[3-(3-trifluoromethyl-phenyl)-ureidomethyl]-pyrazol-1-yl}-benzenesulfonamide] | 16.9 | –
4 | NS(=O)(=O)c1ccc(-n2nc(CCCNC(=O)NC34CC5CC(CC(C5)C3)C4)cc2-c2ccccc2)cc1 [compound 2326, 4-{3-[3-(3-Adamantan-1-yl-ureido)-propyl]-5-phenyl-pyrazol-1-yl}-benzenesulfonamide] | 6.7 | –
5 | NS(=O)(=O)c1ccc(-n2nc(NC(=O)Nc3cccc(C(F)(F)F)c3)cc2-c2ccccc2)cc1 [compound 2121, 4-{5-Phenyl-3-[3-(3-trifluoromethyl-phenyl)-ureido]-pyrazol-1-yl}-benzenesulfonamide] | 33.9 | –
6 | NS(=O)(=O)c1ccc(-n2nc(CCNC(=O)Nc3cccc(C(F)(F)F)c3)cc2-c2ccccc2)cc1 [compound 2313, 4-(5-Phenyl-3-{2-[3-(3-trifluoromethyl-phenyl)-ureido]-ethyl}-pyrazol-1-yl)-benzenesulfonamide] | 22.0 | –
7 | O=C(NC12CC3CC(CC(C3)C1)C2)N[C@H]1CC[C@H](Oc2ccc(C(=O)O)cc2)CC1 [t-AUCB, trans-4-[4-(3-Adamantan-1-yl-ureido)-cyclohexyloxy]-benzoic acid] | – | potentiation of cisplatin with respect to inhibiting tumor growth ([1]; combined with cisplatin 2 mg/kg): moderate additive effect
8 | CS(=O)(=O)c1ccc(-n2nc(CCCNC(=O)Nc3cccc(C(F)(F)F)c3)cc2-c2ccccc2)cc1 [compound 1862, 1-{3-[1-(4-Methanesulfonyl-phenyl)-5-phenyl-1H-pyrazol-3-yl]-propyl}-3-(3-trifluoromethyl-phenyl)-urea] | 6.4 | –
9 | NS(=O)(=O)c1ccc(-n2nc(CCCNC(=O)Nc3ccccc3)cc2-c2ccccc2)cc1 [compound 2245, 4-{5-Phenyl-3-[3-(3-phenyl-ureido)-propyl]-pyrazol-1-yl}-benzenesulfonamide] | 15.8 | –
10 | Cc1ccc(-c2cc(CCCNC(=O)Nc3cccc(C(F)(F)F)c3)nn2-c2ccc(S(N)(=O)=O)cc2)cc1 [compound 2152, 4-(5-p-Tolyl-3-{3-[3-(3-trifluoromethyl-phenyl)-ureido]-propyl}-pyrazol-1-yl)-benzenesulfonamide] | 12.1 | –
11 | COc1ccc2c(c1)c(CC(=O)O)c(C)n2C(=O)c1ccc(Cl)cc1 [indomethacin] | – | COX-2 (IC50)/COX-1 (IC50) ratio (COX-1 and COX-2): 33
12 | CC(C)(C)c1cc(CNC(=O)Nc2cccc(C(F)(F)F)c2)nn1-c1ccc(S(C)(=O)=O)cc1 [compound 2106, 1-[5-tert-Butyl-1-(4-methanesulfonyl-phenyl)-1H-pyrazol-3-ylmethyl]-3-(3-trifluoromethyl-phenyl)-urea] | 2.4 | –
13 | CC(=O)Oc1ccccc1C(=O)O [Aspirin, aspirin] | – | COX-2 (IC50)/COX-1 (IC50) ratio (COX-1 and COX-2): 0.32
14 | CC(C)c1cccc(C(C)C)c1NC(=O)NCCCc1cc(-c2ccccc2)n(-c2ccc(S(N)(=O)=O)cc2)n1 [compound 2325, 4-(3-{3-[3-(2,6-Diisopropyl-phenyl)-ureido]-propyl}-5-phenyl-pyrazol-1-yl)-benzenesulfonamide] | 6.2 | –
15 | N.N.[Cl][Pt][Cl] [cisplatin, reference compound] | – | tumor growth [1]: resistant; levels of p-ERK and p-AKT (p-ERK and p-AKT): did not significantly diminish; IC50 [2]: 4.5 µM; overall survival ([3]; BL0293, PTUPB 30 mg/kg orally once daily, cisplatin 2 mg/kg i.v.): 47.0 days and 47 days; anti-tumor activity, single agent ([3]; mice bearing BL0293 tumors): moderate anti-tumor activity
16 | NS(=O)(=O)c1ccc(-n2nc(CCCNC(=O)Nc3ccc(Cl)cc3)cc2-c2ccccc2)cc1 [compound 2327, 4-(3-{3-[3-(4-Chloro-phenyl)-ureido]-propyl}-5-phenyl-pyrazol-1-yl)-benzenesulfonamide] | 15.2 | –
17 | NS(=O)(=O)c1ccc(-n2nc(CCCNC(=O)NC3CCCCCC3)cc2-c2ccccc2)cc1 [compound 2247, 4-{3-[3-(3-Cycloheptyl-ureido)-propyl]-5-phenyl-pyrazol-1-yl}-benzenesulfonamide] | 10.2 | –
18 | NS(=O)(=O)c1ccc(-n2nc(CCCNC(=O)Nc3cccc(C(F)(F)F)c3)cc2-c2ccccc2)cc1 [compound 2246, 4-(5-Phenyl-3-{3-[3-(3-trifluoromethyl-phenyl)-ureido]-propyl}-pyrazol-1-yl)-benzenesulfonamide] | 27.2 | –
19 | Nc1ccn([C@@H]2O[C@H](CO)[C@@H](O)C2(F)F)c(=O)n1 [gemcitabine] | – | tumor growth [1]: resistant
20 | carboplatin | – | DNA repair rate ([4]; 5637 cells): 21.2 +/−1.3 adducts/10^8 nt per hour; platinum-DNA adduct formation ([4]; after 4h, carboplatin 100 μM, PTUPB 10 μM simultaneously): 528±41 adducts per 10^8 nt; platinum-DNA adduct levels ([4]; at 24 hours (4 hours drug, 20 hours drug-free medium)): 104.1 +/−17.7 adducts/10^8 nt; carboplatin induced DNA adduct formation ([4]; pretreatment with 10 μM PTUPB for 5 hours, then carboplatin): 706 +/−26 adducts per 10^8 nt; carboplatin-DNA adduct levels in tumor DNA [5]: 1070±317 adducts/10^8 nt
21 | NS(=O)(=O)c1ccc(-n2nc(CCCNC(=O)Nc3ccc(OC(F)(F)F)cc3)cc2-c2ccccc2)cc1 [compound 2329, 4-(5-Phenyl-3-{3-[3-(4-trifluoromethoxy-phenyl)-ureido]-propyl}-pyrazol-1-yl)-benzenesulfonamide] | 13.8 | –
22 | CS(=O)(=O)c1ccc(-n2nc(CNC(=O)Nc3cccc(C(F)(F)F)c3)cc2-c2ccccc2)cc1 [compound 1861, 1-[1-(4-Methanesulfonyl-phenyl)-5-phenyl-1H-pyrazol-3-ylmethyl]-3-(3-trifluoromethyl-phenyl)-urea] | 7.8 | –
23 | CS(=O)(=O)c1ccc(-n2nc(CNC(=O)Nc3ccc(C(F)(F)F)cc3)cc2-c2ccccc2)cc1 [compound 2324, 1-[1-(4-Methanesulfonyl-phenyl)-5-phenyl-1H-pyrazol-3-ylmethyl]-3-(4-trifluoromethyl-phenyl)-urea] | 10.7 | –
24 | CS(=O)(=O)c1ccc(-n2nc(CNC(=O)NC3CCCCCC3)cc2-c2ccccc2)cc1 [compound 2321, 1-Cycloheptyl-3-[1-(4-methanesulfonyl-phenyl)-5-phenyl-1H-pyrazol-3-ylmethyl]-urea] | 3.4 | –
